What is called IC50 is the concentration needed to halve the response being measured.

Experiment [1] concerns IL-1β release in THP-1-ASC-GFP cells after NLRP3 activation. Briefly: IC50 determination of IL-1β release inhibition in THP-1-ASC-GFP cells. To be noted: THP1-ASC-GFP; THP-1-ASC-GFP cells, LPS priming 4 h, nigericin; average of at least three experiments; read-out: IL-1β IC50 (nM) THP1 cells. Type of experiment: cell-based. As for the experimental part:
Example 78: IC50 Determination of IL-1β Release Inhibition in THP-1-ASC-GFP Cells The compounds were tested for their ability to inhibit the IL-1β release in the THP-1-ASC-GFP cells after NLRP3 activation. THP1-ASC-GFP cells (Invivogen […] thawed following Invivogen's initial culture procedure. […] The growth medium was composed of RPM1640 medium (Gibco 32404-014), 10% heat inactivated (HI) serum (Gibco A3840102), Pen/Strep (Quality Biologics 118-089-721), 10 mM Hepes (Quality Biologics 118-089-721), 2 mM Glutamax (GIBCO 35050-061), 100 μg/mL normocin (Invivogen ant-nr), 100 μg/mL Zeocin (Invivogen ant-zn). The growth medium was freshly prepared once a week and sterile filtered. Assay medium consisted of RPMI 1640 medium, 10 mM Hepes, 2 mM Glutamax and Pen/Strep. To the assay medium, 1 μg/mL LPS (Invivogen tlrl-3pelps) was added. A cell suspension was prepared with assay medium and LPS at 1.25M cells per mL. With an electronic pipet, 80 μl of cell suspension was added to U bottom 96 well polystyrene plates (VWR 10062-902) leaving columns 1 and 2 empty. The plates were placed in the incubator for 4 hours. […] DMSO). An hour prior to the end of LPS incubation, a separate 96 deep well plate, Plate B, was prepared with 400 μL of assay media per well, then 2 μL of the stock DMSO solution from Plate A was added to each corresponding well. Plate B was covered to avoid media evaporation. In a 50 mL tube, a solution of nigericin in assay media at […] concentration was prepared. To a new 96 deep well plate, Plate C, 200 μL of this nigericin containing media was dispensed to each well and […] of the test compounds from Plate A to each corresponding well was added. Plate C was covered to avoid media evaporation. After 4 hours of priming, all the media from the LPS treated THP-1 cells in the initial U bottom plate was removed manually. To this plate of primed cells, 80 μL/well test compounds from Plate B was added in duplicate columns (5 compounds tested per plate). The plate was placed in an incubator for 30 min. […] The plate was placed back in the incubator for 1 hour. At the end of 1 hour, the supernatant from this test plate was transferred to a new 96 well V bottom polypropylene plate which was frozen immediately at -80° C. The plate was transferred to -20° C. the next day and awaiting further determination of cytokine IL-1β level. The release of IL-1β into the cell media was determined by MSD® Multi-Spot Assay System (V-Plex, IL-1B kit, […]-4). Following the manufacture's protocol and using the Alternate Protocol 3, Dilute-In-Plate protocol specifically, the level of IL-1β in the above collected supernatant plate was measured as electrochemiluminescent signals. Using MSD DISCOVERY WORKBENCH® analysis software, the signals were converted to the concentration of IL-1β in each well. The IC50 values of the compounds were calculated using the Graph Pad Prism software based on the […] concentration determined. The detection range of IL-1β using MSD kit was approximately […] (based on various lots of standards purchased from MSD).

For experiment [2], the system named is IL-1β release in U937 cells after NLRP3 activation. Briefly: IC50 determination of IL-1β release inhibition in U937 cells. Conditions: Homo sapiens, U-937; PMA-differentiated U937 cells, LPS priming 5 h, nigericin; average of at least three experiments; read-out: IL-1β IC50 (nM) U937 cells. In kind it is cell-based. As for the experimental part: Example 79: IC50 Determination of IL-1β Release Inhibition in U937 Cells The compounds of the present disclosure were tested for their ability to inhibit the IL-1β release in the U937 cells after NLRP3 activation. U937 cells (U-97 CRL 1593.2) were thawed following ATCC's initial culture procedure. […] The growth medium was composed of RPMI1640 medium (Quality Biological 112-040-101), 10% serum (Corning 35-076-CV), Pen/Strep (GIBCO 15140-122), 10 mM Hepes (Quality Biological 118-089-721), 2 mM Glutamax (GIBCO 35050-061), and 100 μg/mL normocin (Invivogen ant-nr)-Differentiating media was prepared by adding Phorbol 12-myristate 13-acetate (PMA) (AdipoGen AG-CN2-0010-M005) to growth medium. A cell suspension was prepared with differentiating media at 500k cells/ml. With an electronic pipet, 200 ul of cell suspension was added to each well (96w white plate Corning 3903) leaving columns 1 and 2 empty. Plates were left in the biosafety cabinet for 15 min and then placed in incubator for 90 hours. Priming media was prepared with assay medium consisting of RPMI 1640 medium, 10 mM Hepes, 2 mM Glutamax and Pen/Strep plus 1 μg/mL LPS (Invivogen tlrl-3pelps). Differentiating media was manually removed and 80 ul of priming media was added to each well with an electronic pipet. The plates were placed in the incubator for 5 hours. […] DMSO). An hour prior to the end of LPS incubation, a separate 96 deep well plate, Plate B, was prepared with 400 μL of assay media per well, then […] of the stock DMSO solution from Plate A was added to each corresponding well. Plate B was covered to avoid media evaporation. In a 50 mL tube, a solution of nigericin in assay media at 50 uM/mL concentration was prepared. To a new 96 deep well plate, Plate C, 200 μL of this nigericin containing media was dispensed to each well and 1 μL of the test compounds from Plate B to each corresponding well was added. Plate C was covered to avoid media evaporation. After 5 hours of priming, all the media from the LPS treated U937 cells was removed manually. To this plate of primed cells, 80 μL/well test compounds from Plate B (assay media+compound) was added in duplicate columns (5 compounds tested per plate). The plate was placed in an incubator for 30 min. […] The plate was placed back in the incubator for 1 hour. At the end of 1 hour, the supernatant from this test plate was transferred to a new 96 well V bottom polypropylene plate which was frozen immediately at -80° C. The plate was transferred to -20° C. the next day and awaited further determination of cytokine IL-Ip level. The release of IL-1β into the cell media was determined by MSD® Multi-Spot Assay System (V-Plex, IL-1B kit, […]-4). Following the manufacture's protocol and using the Alternate Protocol 3, Dilute-In-Plate protocol specifically, the level of IL-IP in the above collected supernatant plate was measured as electrochemiluminescent signals. Using MSD DISCOVERY WORKBENCH® analysis software, the signals were converted to the concentration of IL-1β in each well. The IC50 values of the compounds were calculated using the Graph Pad Prism software based on the IL-1β concentration determined. The detection range of IL-1β using MSD kit was approximately […] (based on various lots of standards purchased from MSD).

Regarding `Cc1oc(S(=O)(=O)NC(=O)Nc2c3c(c(F)c4c2CCC4)CCC3)cc1CN1C[C@H](O)[C@@H](F)C1` [Example 41, N-((8-fluoro-1,2,3,5,6,7-hexahydro-s-indacen-4-yl)carbamoyl)-4-(((3S,4S)-3-fluoro-4-hydroxypyrrolidin-1-yl)methyl)-5-methylfuran-2-sulfonamide], the IC50 in experiment [1] and in experiment [2] was 5 to 50 nM in each case.
On to `Cc1oc(S(=N)(=O)NC(=O)Nc2c3c(cc4c2CCC4)CCC3)cc1CN(C)CC1(CO)CCOCC1` (stereo not drawn) [Example 10, N-((1,2,3,5,6,7-hexahydro-s-indacen-4-yl)carbamoyl)-4-((((4-(hydroxymethyl)tetrahydro-2H-pyran-4-yl)methyl)(methyl)amino)methyl)-5-methylfuran-2-sulfonimidamide], for which the concentration for half-maximal inhibition (IC50) was under 5 nM in experiment [1] and 5 to 50 nM in experiment [2].
On the same counts, the results for `CC(C)n1nc(S(=N)(=O)NC(=O)Nc2c3c(cc4c2CCC4)CCC3)cc1CN1CC(O)C1` (stereo not drawn) [Example 19, N-((1,2,3,5,6,7-hexahydro-s-indacen-4-yl)carbamoyl)-5-((3-hydroxyazetidin-1-yl)methyl)-1-isopropyl-1H-pyrazole-3-sulfonimidamide] are under 5 nM and 5 to 50 nM.
In the case of `CC(C)n1nc(S(=N)(=O)NC(=O)Nc2c3c(cc4c2CCC4)CCC3)cc1CN1CCC[C@H]1CO` (stereo partly drawn) [Example 21, N-((1,2,3,5,6,7-hexahydro-s-indacen-4-yl)carbamoyl)-5-(((S)-2-(hydroxymethyl)pyrrolidin-1-yl)methyl)-1-isopropyl-1H-pyrazole-3-sulfonimidamide], the IC50 in experiment [1] and in experiment [2] was under 5 nM in each case.
In the case of `Cc1oc(S(=N)(=O)NC(=O)Nc2c3c(cc4c2CCC4)CCC3)cc1CN(C)CC1(CO)CCC1` (stereo not drawn) [Example 9, N-((1,2,3,5,6,7-hexahydro-s-indacen-4-yl)carbamoyl)-4-((((1-(hydroxymethyl)cyclobutyl)methyl)(methyl)amino)methyl)-5-methylfuran-2-sulfonimidamide], the IC50 in experiment [1] was under 5 nM; in experiment [2], 5 to 50 nM.
On the same counts, the results for `CC(C)NCc1coc([S@](=N)(=O)NC(=O)Nc2c3c(c(F)c4c2CCC4)CCC3)c1` (single isomer, unassigned) [Example 31] are under 5 nM and under 5 nM.
On the same counts, the results for `Cc1oc(S(=O)(=O)NC(=O)Nc2c3c(c(F)c4c2CCC4)CCC3)cc1CN(C)CC1(O)CCC1` [Example 35, N-((8-fluoro-1,2,3,5,6,7-hexahydro-s-indacen-4-yl)carbamoyl)-4-((((1-hydroxycyclobutyl)methyl)(methyl)amino)methyl)-5-methylfuran-2-sulfonamide] are under 5 nM and under 5 nM.
`Cn1nc(S(=O)(=O)NC(=O)Nc2c3c(c(F)c4c2CCC4)CCC3)cc1CN1CC[C@@H](O)C1` [Example 61, (R)-N-((8-fluoro-1,2,3,5,6,7-hexahydro-s-indacen-4-yl)carbamoyl)-5-((3-hydroxypyrrolidin-1-yl)methyl)-1-methyl-1H-pyrazole-3-sulfonamide]: the IC50 in experiment [1] and in experiment [2] was 50 to 500 nM in each case.
As for `CC(O)c1cc(S(=O)(=O)NC(=O)Nc2c3c(c(F)c4c2CCC4)CCC3)oc1CN1CCNCC1` (stereo not drawn) [Example 72, N-((8-fluoro-1,2,3,5,6,7-hexahydro-s-indacen-4-yl)carbamoyl)-4-(1-hydroxyethyl)-5-(piperazin-1-ylmethyl)furan-2-sulfonamide], the IC50 in experiment [1] and in experiment [2] was 5 to 50 nM throughout.
As for `Cc1oc(S(=O)(=O)NC(=O)Nc2c3c(c(F)c4c2CCC4)CCC3)cc1CN1C[C@@H](O)[C@@H](F)C1` [Example 42, N-((8-fluoro-1,2,3,5,6,7-hexahydro-s-indacen-4-yl)carbamoyl)-4-(((3S,4R)-3-fluoro-4-hydroxypyrrolidin-1-yl)methyl)-5-methylfuran-2-sulfonamide], the IC50 in experiment [1] was in the range of 5 to 50 nM; in experiment [2], 50 to 500 nM.
As for `CC(C)(O)c1cc(S(=O)(=O)NC(=O)Nc2c3c(cc4c2CCC4)CCC3)oc1CN1CCNCC1` [Example 70, N-((1,2,3,5,6,7-hexahydro-s-indacen-4-yl)carbamoyl)-4-(2-hydroxypropan-2-yl)-5-(piperazin-1-ylmethyl)furan-2-sulfonamide], the IC50 in experiment [2] fell in the range of 5 to 50 nM.
In the case of `Cc1oc(S(=O)(=O)NC(=O)Nc2c3c(cc4c2CCC4)CCC3)cc1CN(C)CC1(CO)CCC1` [Example 34, N-((1,2,3,5,6,7-hexahydro-s-indacen-4-yl)carbamoyl)-4-((((1-(hydroxymethyl)cyclobutyl)methyl)(methyl)amino)methyl)-5-methylfuran-2-sulfonamide], in experiment [2], the IC50 lay in the range of 5 to 50 nM.
Still for that read-out and setting: for `CC(C)n1nc(S(=N)(=O)NC(=O)Nc2c3c(cc4c2CCC4)CCC3)cc1CN` (stereo not drawn) [Example 77, 5-(aminomethyl)-N-((1,2,3,5,6,7-hexahydro-s-indacen-4-yl)carbamoyl)-1-isopropyl-1H-pyrazole-3-sulfonimidamide] the value was 50 to 500 nM.
For `Cc1cc(S(=O)(=O)NC(=O)Nc2c3c(c(F)c4c2CCC4)CCC3)oc1CN1C[C@@H](F)[C@@H](O)C1` [Example 55, N-((8-fluoro-1,2,3,5,6,7-hexahydro-s-indacen-4-yl)carbamoyl)-5-(((3R,4S)-3-fluoro-4-hydroxypyrrolidin-1-yl)methyl)-4-methylfuran-2-sulfonamide], the 50% inhibitory concentration (IC50) in experiment [2] fell in the range of 5 to 50 nM.

Source of the values: patent publication US20250388568A1, “NLRP3 INHIBITORS” (Kodiak Sciences Inc., priority 2022, published 2025).
